# Assay results from US20050143472A1, “Novel treatment for pathologies associated with oxidative damage” (priority 2002, published 2005).
# Read-outs that look alike come from different tables or passages of the source.
# Experiments:
# [1] = molecular target: T1, mPAO (Mus musculus, UniProt Q8C0L6); assay: Oxygraph assay of O2 consumption, progress-curve analysis; format: biochemical, murine
# T1 construct: the full length cDNA of mpao was released by Nde I and Hind III treatment, and ligated into Nde I and Hind III sites of pET29c; made in house; host or cells: E. coli BL21 GOLD (DE3), plasmid pET-MPAO (pET29c)
# T1 sequence (Q8C0L6 whole entry E184K/L285S/R416L/R417S/Q419R/E451A/V490I/S491G/V497A): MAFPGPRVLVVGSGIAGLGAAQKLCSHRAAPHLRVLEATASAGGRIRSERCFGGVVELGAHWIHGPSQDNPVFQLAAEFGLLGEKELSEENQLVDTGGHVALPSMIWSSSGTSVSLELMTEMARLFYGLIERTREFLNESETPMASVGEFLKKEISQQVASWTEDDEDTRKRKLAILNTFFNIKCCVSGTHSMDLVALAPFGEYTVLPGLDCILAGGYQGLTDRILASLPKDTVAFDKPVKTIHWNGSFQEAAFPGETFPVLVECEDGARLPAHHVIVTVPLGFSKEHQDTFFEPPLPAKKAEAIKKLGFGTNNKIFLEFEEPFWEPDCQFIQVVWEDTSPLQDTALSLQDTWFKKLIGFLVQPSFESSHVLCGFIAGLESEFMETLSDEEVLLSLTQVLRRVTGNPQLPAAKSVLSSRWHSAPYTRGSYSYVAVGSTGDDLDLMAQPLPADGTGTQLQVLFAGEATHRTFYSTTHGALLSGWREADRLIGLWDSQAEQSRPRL
# Protocol: Some assays (oxygraph assays) were carried out by directly monitoring O2 consumption in air-saturated buffer ([O2]=0.237 mM) or buffer saturated with pure O2 at 30° C. ([O2]=1.12 mM). The depletion of O2 was detected with a Yellow Springs Instruments, Inc. Model 53 Oxygen Monitor equipped with a Clark electrode. […] Following a published procedure (Goudar et al., Biochim. Biophys. Acta 1429:377-383 [1999]), the data were fitted to the integrated Mechaelis-Menton equation. The analyses were done using Maple VI (Windows 2000) software (Waterloo Maple, Inc.) running on a PC computer. […] Inhibition by the H2O2, formed as a product of polyamine oxidation by mPAO, was assessed by addition of 2 μL of a 30 mg/mL (30,000 units/mg) solution of catalase, after [O2] reached zero.
# The catalase immediately converted each mole of H2O2 to 0.5 mol of O2 (since [O2]=1.12 mM for pure O2-saturated buffer, then [O2]=0.56 mM immediately after catalase addition). In the presence of catalase, O2 depletion should occur at 0.5× the rate as it does in the absence of catalase (unless H2O2 inhibition is operating). With catalase present, each molecule of O2 will be converted eventually to H2O (4-electron equivalents), rather than to H2O2 (2-electron equivalents).
# [2] = molecular target: T1, mPAO; assay: Steady-state kinetic spectrophotometric assay of mPAO (H2O2 formation); format: biochemical, murine
# Protocol: In this example the methods used to examine mPAO steady state kinetics are described. Spectrophotometric assays were done at 30° C. in a potassium phosphate buffer (e.g., 50 mM KH2PO4/KOH buffer, pH 7.6 saturated in air or in pure oxygen), using a published procedure which provides a continuous monitor of the H2O2 produced (Holt et al., Anal. Biochem. 244:384-392 [1997]). These assays were done in 1 mL cuvette with 0.8 mL of solution containing varying amounts of substrate, 1 mM vanillic acid, 0.5 mM 4-aminopyrine, 4 units of horseradish peroxidase, and 0.1-0.2 μg of mPAO. The reactions were monitored at 498 nm with a UVIKON 840 spectrophotometer (KONTRON Instruments) for the formation of the quinoneimine dye (ε498=4,650 M^−1cm^−1 at pH 7.6), the condensation product of vanillic acid and oxidized 4-aminopyrine. The latter is produced from 4-aminopyrine by the action of horseradish peroxidase that has been oxidized by H2O2 (Holt et al., supra [1997]). The assays were done at 25° C. by varying the concentration of the amine substrate, while the oxygen concentration in the assay solution was constant at the air-saturating level of 237 μM. The data were fit, by nonlinear regression to steady-state kinetic equations (McIntire et al., Biochem. J. 228:325-335 [1985]), which provided the values, and standard deviations thereof, for kcat′, KS′ and kcat′/KS′ (=Q, the specificity constant). [formula]
# The dissociation constants, KD, for these and other amines were estimated in the following manner. It was assumed that the competition was competitive, since in the presence of the inhibitors, at a saturating N^1-acetyl-Spm concentration, the rate of the reaction was equal to the value of the true kcat. It was also assumed that the mechanism is of the ping-pong type. Thus, the applicable steady-state equation is (Segal, Enzyme Kinetics, John Wiley & Sons, New York, pp. 606-625 [1975]): [formula]
# On the left, kcat and KS are the steady-state parameters for N^1-acetyl-Spm (S), and I and KI (=KD), represent the inhibitor and its inhibition constant, respectively. KIO and KO are the inhibition constant and Michaelis constant for O2, respectively. The equation can be converted to the expression on the right side when: [formula]
# The expressions for kcat′ and KS′ (at the fixed [O2]=[…]) are the same as those when the inhibitor is absent. Since the values of kcat′ and KS″ were predetermined, inhibition assays were carried out where [S]≈KS″, which, in the absence of I, would give a rate, ν≈0.5×kcat″. In these assay, for each inhibitor, [I] was adjusted so the apparent rate was somewhat less then 0.5 kcat′. In this situation, after substitution and rearrangement, Equation 1 reduces to: [formula]
# Since [I] and kcat′ are known, and ν is the measured rate in the presence of the inhibitor, the value of KI′ can be estimated. It is assumed that these apparent KI′ are good approximations of the true KI (=KD) values. […] The estimated KI′ values provided in Table 1, are the averages of these four values. If the reactions of the polyamine substrates and O2 with mPAO obeys a ping-pong type mechanism, the apparent values, kcat′/KS′, are equal to the true kcat/KS values.
# [3] = tested on: HL-60 human promyelogenous leukemia cells
# From the text: (§1) In this Example, the method used to examine hpao mRNA production by cultured cells undergoing apoptosis is described.
# [4] = tested on: OVCAR-3 human ovarian carcinoma cells; settings: approximately 50 μM, within 20 hrs
# From the text: as §1
compound,measurement,setting,value
"CC(=O)NCCCNCCCCNCCCN [N^1-acetyl-Spm, N^1-acetyl-spermine]",KQ,"[1]; Michaelis constant for O2, saturating amine substrate",180 ± 20 µM
same,kcat/KQ,"[1]; for O2, saturating amine substrate, pure O2-saturated buffer",(4.4 ± 0.4) × 10^4 M^−1sec−^1
same,KS(calc),[1]; true KS calculated from apparent KS′ with KS = KS′(1 + KO/[O2]),3.1 ± 0.3 µM
same,kcat,"[1]; true value, saturating substrate (3.7 mM), buffer saturated with pure O2 (1.12 mM)",8.0 ± 0.8 s⁻¹
same,kcat′,"[2]; apparent value, air-saturated 50 mM KH2PO4/KOH buffer pH 7.6, [O2] 237 μM",4.53 ± 0.05 s⁻¹
same,KS′,"[2]; apparent value, air-saturated buffer pH 7.6, [O2] 237 μM",1.78 ± 0.1 µM
same,substrate for mPAO (oxidation by mPAO),[2]; in words,good mPAO substrates
same,kcat′/KS′,"[2]; specificity constant, air-saturated buffer pH 7.6",(2.54 ± 0.01) × 10^6 M^−1sec^−1
same,HL-60 cell survival,"[3]; 24 hrs, all tested concentrations",survived for 24 hrs
same,HL-60 cells survived,"[3]; 72 hrs exposure, 0.05 mM",100%
same,HL-60 cells killed,"[3]; 72 hrs exposure, 0.1 mM",30%
same,HL-60 cells killed,"[3]; 72 hrs exposure, 0.2 mM",50%
same,HL-60 cells killed,"[3]; 72 hrs exposure, 0.5 mM",80%
same,OVCAR-3 cells killed,[4],100%
